The record followed here is patent US20250361486A1, “METHOD FOR CULTURING CELLS REQUIRING A SUPPLY OF IRON” (SAFI BIOTHERAPEUTICS INC., priority 2022, published 2025).

The test system of assay [1] is cultured red blood cells. The experiment in a line: Cell losses at end of red blood cell perfusion culture. The class given is cell-based. The settings on record: Trolox approximately 100 μM in culture medium, perfusion bioreactor step D7 to D22; average of 6 cultures; 13% loss without Trolox. The method, then:
(§1) Cultured red blood cell production was performed with and without the addition of Trolox during the perfusion bioreactor culture step of the process described below.
(§2) Briefly, the cells cultured according to the invention are total nucleated cells collected by cytapheresis from volunteer donors previously mobilised with G-CSF.
(§3) A first step of the process according to the invention is carried out over 7 days (from D1 to D7) in fed-batch at a temperature of 37° C., under an atmosphere of 5% CO2 and in a culture medium adapted from that described by Giarratana et al. (2011) “Proof of principle for transfusion of in vitro-generated red blood cells”, Blood 118:5071-5079 for the first step of the expansion procedure described in the article (page 5072). Halfway through this step, fresh culture medium is added to the culture so as to dilute the culture by half (the same volume of culture medium is added as the volume initially present). […]
Fifteen cultures were performed (9 without Trolox and 6 with Trolox) and cell losses were measured at the end of the culture, defined as the % decrease in cell concentration between the peak cell concentration and the day the culture was stopped (2 to 3 days later).

For assay [2], the system named is cultured red blood cells. The experiment in a line: Preservation yield of cultured red blood cells after 28 days in a preservation solution. The class given is cell-based. The settings on record: culture conducted with Trolox approximately 100 μM; red blood cells stored for 28 days in a preservation solution; 63% without Trolox. The method, then: as §1, §2, §3
Furthermore, the red blood cells from the above cultures were stored for 28 days in a preservation solution and the preservation efficiency at the end of the preservation period was determined [100×(final red blood cell count/mL)/(initial red blood cell count/mL].

In the case of `Cc1c(C)c2c(c(C)c1O)CCC(C)(C(=O)O)O2` (centres unmarked) [Trolox, 3,4-dihydro-6-hydroxy-2,5,7,8-tetramethyl-2H-I-benzopyran-2-carboxylic acid], in the assay on cultured red blood cells [1], the “cell losses at the end of culture (% decrease in cell concentration between peak cell concentration and day culture was stopped)” value came out at 6%. The “average conservation yield [100×(final red blood cell count/mL)/(initial red blood cell count/mL)]” value in the assay on cultured red blood cells [2] came to 77%.
